Source: US20020086278A1, “CHROMOGENIC MEDIA CONTAINING BLOOD OR HEMIN” (priority 1999, published 2002)
Read-outs that look alike come from different tables or passages of the source.

Experiments:
[1] = test system: Aeromonas hydrophilia (aehy); experiment: Example 3: colony color on chromogenic TSA II with 5% sheep blood (chromogen in medium); format: cell-based; details: CO2
[2] = test system: Staphylococcus Coag Neg (step); experiment: as above; format: cell-based; details: for Colony Color on Various Chromogenic TSA II with 5% Sheep Blood: 18 h; for Colony Color: 21 h
[3] = test system: Gardnerella vaginalis 14019; experiment: Example 1: growth and colony color on plates surface-spread with chromogen; format: cell-based; details: Substrate on Choclate II Agar; G. vag. 14019
[4] = test system: Klebsiella pneumoniae (klpn); experiment: Example 3: colony color on chromogenic TSA II with 5% sheep blood (chromogen in medium); format: cell-based; details: for Colony Color: CO2
[5] = Precipitate of chromogen on pre-plated media; format: physicochemical; details: After 1 week
Procedure: 50 μl of each chromogen solution was added to the surface of each of the following pre-plated media (one chromogen solution per plate):
The solution was dispersed using a spreader and allowed to dry 3-4 hours in a hood.

[6] = test system: Staphylococcus aureus (stau); experiment: Example 3: colony color on chromogenic TSA II with 5% sheep blood (chromogen in medium); format: cell-based
[7] = test system: Entercoccus faecalis (enfa); experiment: as above; format: cell-based; details: for Colony Color: CO2
[8] = test system: E. coli (non-O157) (esco); format: cell-based
[9] = test system: Pseudomonas aeruginosa (psae); experiment: Example 3: colony color on chromogenic TSA II with 5% sheep blood (chromogen in medium); format: cell-based; details: CO2
[10] = test system: Group B Strep. 12386; experiment: Example 1: growth and colony color on plates surface-spread with chromogen; format: cell-based; details: for Color: Group B Strep 12386
[11] = test system: Serratia marcescens (sema); experiment: Example 3: colony color on chromogenic TSA II with 5% sheep blood (chromogen in medium); format: cell-based; details: for Colony Color: sema 13880, CO2
[12] = test system: Branhamella catarrhalis (brca); experiment: as above; format: cell-based; details: for Colony Color: CO2
[13] = test system: E. faecium (enfu); experiment: as above; format: cell-based
[14] = test system: S. pneumoniae (stpn); experiment: as above; format: cell-based; details: for Colony Color on Various Chromogenic TSA II with 5% Sheep Blood: 18 h
[15] = test system: Citrobacter freundii (cifr); experiment: as above; format: cell-based; details: for Colony Color: CO2
[16] = test system: S. agalactiae 12386; experiment: Example 2: effect of incubation conditions on colony color formation; format: cell-based, Streptococcus agalactiae; details: 0.004 g/plate, 24 h, CO2
[17] = test system: Escherichia coli 25922; experiment: Example 1: growth and colony color on plates surface-spread with chromogen; format: cell-based; details: TSA II 5SB; E. coli 25922
[18] = test system: milu 9341; experiment: Example 3: colony color on chromogenic TSA II with 5% sheep blood (chromogen in medium); format: cell-based
[19] = test system: S. milleri (stmi); experiment: as above; format: cell-based; details: for Colony Color: stmi 6249, 21 h
[20] = test system: S pyogenes (stpy); experiment: as above; format: cell-based; details: for Colony Color on Various Chromogenic TSA II with 5% Sheep Blood: 18 h
[21] = test system: Candida albicans (caal); experiment: as above; format: cell-based; details: for Colony Color: caal 10231
[22] = test system: cakr 34135; experiment: as above; format: cell-based
[23] = chromogenic TSA II with 5% Sheep Blood, 0.1 g/l, 5 strains tested
[24] = chromogenic TSA II with 5% Sheep Blood, 0.1 g/l, 3 strains tested
[25] = chromogenic TSA II with 5% Sheep Blood, 0.1 g/l, 1 strain tested
[26] = chromogenic TSA II with 5% Sheep Blood, 0.1 g/l, 2 strains tested

SMILES: OC[C@H]1O[C@@H](Oc2c[nH]c3ccc(Br)c(Cl)c23)[C@H](O)[C@@H](O)[C@@H]1O [X-Glucoside, 5-Br-4-Cl-3-indolyl-β-D-glucopyranoside]
- Colony Color ([1]; aehy 7965, 18 h): 0
- Colony Color ([1]; aehy 7965, 21 h): 0
- Colony Color ([1]; aehy 7966, 18 h): 0
- Colony Color ([1]; aehy 49847, 18 h): gb
- Colony Color ([1]; aehy 49847, 21 h): gb
- Colony Color (Summary) [2, 23]: 0
- Colony Color on Various Chromogenic TSA II with 5% Sheep Blood ([2]; step 12228, CO2): 0
- Colony Color ([2]; step 12228, CO2): 0
- Colony Color ([2]; step 12228, air): 0
- Colony Color on Various Chromogenic TSA II with 5% Sheep Blood ([2]; step cdc1, CO2): 0
- Colony Color ([2]; step cdc1, CO2): 0
- Colony Color ([2]; step cdc1, air): 0
- Colony Color ([2]; step cdc2, CO2): 0
- Colony Color ([2]; step cdc2, air): 0
- Colony Color ([2]; step cdc3, CO2): 0
- Colony Color ([2]; step cdc3, air): 0
- Colony Color on Various Chromogenic TSA II with 5% Sheep Blood ([2]; step cdc4, CO2): 0
- Colony Color ([2]; step cdc4, CO2): 0
- Colony Color ([2]; step cdc4, air): 0
- Colony Color on Various Chromogenic TSA II with 5% Sheep Blood ([2]; stha cdc2, CO2): 0
- Colony Color on Various Chromogenic TSA II with 5% Sheep Blood ([2]; stsa cdc3, CO2): 0
- Growth [3]: <
- Colony Color (Summary) [4, 24]: +
- Colony Color ([4]; klpn 13883, 21 h): gb
- Colony Color ([4]; klpn 33495, 18 h): gb
- Colony Color ([4]; klpn 33606, 18 h): gb
- Colony Color ([4]; klpn 33606, 21 h): gb
- Precipitate on plates after 1 week [5]: some precipitate was evident
- Colony Color (Summary) [6, 23]: 0
- Colony Color ([6]; stau 1006, CO2, 21 h): 0
- Colony Color ([6]; stau 1007, CO2, 21 h): 0
- Colony Color ([6]; stau 1008, CO2, 21 h): 0
- Colony Color ([6]; stau 1009, CO2, 21 h): 0
- Colony Color ([6]; stau 25923, CO2, 18 h): 0
- Colony Color ([6]; stau 25923, CO2, 24 h): 0
- Colony Color ([6]; stau 25923, air, 24 h): 0
- Colony Color on Various Chromogenic TSA II with 5% Sheep Blood ([6]; stau t006, CO2, 18 h): 0
- Colony Color on Various Chromogenic TSA II with 5% Sheep Blood ([6]; stau t007, CO2, 18 h): 0
- Colony Color on Various Chromogenic TSA II with 5% Sheep Blood ([6]; stau t008, CO2, 18 h): 0
- Colony Color on Various Chromogenic TSA II with 5% Sheep Blood ([6]; stau t009, CO2, 18 h): 0
- Colony Color (Summary) ([7]; chromogenic TSA II with 5% Sheep Blood, 0.1 g/l, 6 strains tested): +
- Colony Color ([7]; enfa 597, 18 h): db
- Colony Color ([7]; enfa 10741, 18 h): db
- Colony Color ([7]; enfa 10741, 21 h): db
- Colony Color ([7]; enfa 12953, 18 h): db
- Colony Color ([7]; enfa 12953, 21 h): db
- Colony Color ([7]; enfa 14506, 18 h): db
- Colony Color ([7]; enfa 14506, 21 h): db
- Colony Color ([7]; enfa 29212, 18 h): db
- Colony Color ([7]; enfa 29212, 21 h): db
- Colony Color (Summary) [8, 24]: 0
- Colony Color ([8]; esco 11775, CO2, 18 h): 0
- Colony Color ([8]; esco 11775, CO2, 21 h): 0
- Colony Color ([8]; esco 25922, CO2, 24 h): 0
- Colony Color ([8]; esco 25922, air, 24 h): 0
- Colony Color ([8]; esco 33605, CO2, 18 h): 0
- Colony Color ([8]; esco 33605, CO2, 21 h): 0
- Colony Color ([9]; psae 9027, 18 h): 0
- Colony Color ([9]; psae 9027, 21 h): 0
- Colony Color ([9]; psae 15442, 18 h): 0
- Colony Color ([9]; psae 15442, 21 h): 0
- Colony Color ([9]; psae 33607, 18 h): 0
- Colony Color ([9]; psae 33607, 21 h): lgb
- Color ([10]; Choc II): blue
- Substrates Producing Color ([10]; Summary of Table I, Group B Strep. 12386): X-Glucoside, X-
- Color ([10]; TSA II 5SB): blue
- Color ([10]; TSA Plain): blue
- Colony Color (Summary) [11, 25]: +
- Colony Color ([11]; 18 h): bg
- Colony Color ([11]; 21 h): gb
- Colony Color ([12]; brca 25238, 18 h): 0
- Colony Color ([12]; brca 25238, 21 h): 0
- Colony Color ([12]; brca 25240, 18 h): 0
- Colony Color ([12]; brca 25240, 21 h): 0
- Colony Color (Summary) [12, 26]: 0
- Colony Color (Summary) [13, 25]: +
- Colony Color ([13]; enfu 49032, CO2, 18 h): db
- Colony Color ([14]; stpn 1259, CO2, 21 h): 0
- Colony Color ([14]; stpn 1260, CO2, 21 h): 0
- Colony Color ([14]; stpn 1628, CO2, 21 h): 0
- Colony Color ([14]; stpn 6303, CO2, 24 h): 0
- Colony Color ([14]; stpn 6303, air, 24 h): 0
- Colony Color ([14]; stpn 6305, CO2, 24 h): 0
- Colony Color ([14]; stpn 6305, air, 24 h): 0
- Colony Color on Various Chromogenic TSA II with 5% Sheep Blood ([14]; stpn t259, CO2): 0
- Colony Color on Various Chromogenic TSA II with 5% Sheep Blood ([14]; stpn t260, CO2): 0
- Colony Color on Various Chromogenic TSA II with 5% Sheep Blood ([14]; stpn t331, CO2): 0
- Colony Color on Various Chromogenic TSA II with 5% Sheep Blood ([14]; stpn t628, CO2): bg
- Colony Color (Summary) [15, 26]: 0
- Colony Color ([15]; cifr 8454, 18 h): 0
- Colony Color ([15]; cifr 8454, 21 h): 0
- Colony Color ([15]; cifr 33128, 18 h): 0
- Colony Color ([15]; cifr 33128, 21 h): 0
- Colony Color ([16]; Chocolate II Agar): blue (d)
- Colony Color ([16]; TSA II 5% Sheep Blood): blue (d)
- Growth [17]: 4
- Colony Color ([18]; CO2, 18 h): ly
- Colony Color ([18]; CO2, 21 h): 0
- Colony Color (Summary) [19, 26]: 0
- Colony Color on Various Chromogenic TSA II with 5% Sheep Blood ([19]; stmi 6242, CO2, 18 h): 0
- Colony Color ([19]; CO2): 0
- Colony Color ([19]; air): 0
- Colony Color ([20]; 4 of 7 S. pyogenes, X-glucoside TSA II): light grey blue
- Colony Color ([20]; stpy 1027, CO2, 21 h): 0
- Colony Color ([20]; stpy 1028, CO2, 21 h): lgb
- Colony Color ([20]; stpy 1029, CO2, 21 h): lgb
- Colony Color ([20]; stpy 1030, CO2, 21 h): gb
- Colony Color ([20]; stpy 19615, CO2, 21 h): gb
- Colony Color ([20]; stpy 19615, air, 21 h): lgb
- Colony Color ([20]; stpy 49117, CO2, 21 h): 0
- Colony Color ([20]; stpy 49117, air, 21 h): 0
- Colony Color on Various Chromogenic TSA II with 5% Sheep Blood ([20]; stpy 51339, CO2): 0
- Colony Color ([20]; stpy 51339, CO2, 21 h): 0
- Colony Color ([20]; stpy 51339, air, 21 h): lgb
- Colony Color on Various Chromogenic TSA II with 5% Sheep Blood ([20]; stpy t027, CO2): 0
- Colony Color on Various Chromogenic TSA II with 5% Sheep Blood ([20]; stpy t028, CO2): 0
- Colony Color on Various Chromogenic TSA II with 5% Sheep Blood ([20]; stpy t029, CO2): 0
- Colony Color on Various Chromogenic TSA II with 5% Sheep Blood ([20]; stpy t030, CO2): lgb
- Colony Color ([21]; CO2, 18 h): 0
- Colony Color ([21]; CO2, 24 h): 0
- Colony Color ([21]; air, 24 h): 0
- Colony Color (Summary) [21, 26]: 0
- Colony Color ([22]; CO2, 18 h): 0
- Colony Color ([22]; CO2, 21 h): 0
